Data on 35 compounds can be found in EPA's ToxValDB 9.5.

Converted amounts (≈) assume the structure as drawn. “And” between values parts separate entries of the source, which are not always exact repeats. Equal values may be shown once.

Data set [1] deals with Canidae.
In data set [2] the test system is Ovis sp. Particulars: for LD50: acute, mortality.
The test system of data set [3] is Rattus norvegicus.
The test system of data set [4] is Anas platyrhynchos.
Data set [5] relates to Colinus virginianus.
Data set [6] has as its system Oryctolagus sp. Conditions: reproduction developmental.
For data set [7], the system named is Pontoscolex corethrurus. Particulars: mortality; for LC50: acute.
The test system of data set [8] is Mus musculus.
The test system of data set [9] is Daphnia magna. Conditions: for NOEC: chronic/long-term, duration: 21 days, reproduction.
Data set [10] concerns Bovidae. Particulars: subchronic; duration: 57 days; oral; diet; no effects.
Data set [11] deals with Sus scrofa. Particulars: Not specified.
Data set [12] has as its system Gallus gallus.
For data set [13], the system named is Phasianus sp. Conditions: acute; oral; unspecified; mortality.
For data set [14], the system named is Landoltia sp.
Data set [15] has as its system Lepomis macrochirus. Conditions: acute; duration: 96 hours; mortality.
The test system of data set [16] is Bibionidae. Particulars: chronic/long-term.
In data set [17] the test system is Pimephales promelas. Particulars: chronic/long-term.
The test system of data set [18] is Danio rerio. Conditions: acute; duration: 96 hours; mortality.
The subject of data set [19] is Cyprinodon variegatus. Particulars: chronic/long-term; duration: 90 days; development.
Data set [20] relates to Neomysis kadiakensis. Particulars: chronic/long-term; duration: 28 days; other.
Data set [21] relates to Apis mellifera. Particulars: acute, mortality.
Data set [22] relates to Hypoaspis aculeifer. Conditions: chronic/long-term; duration: 14 days; mortality.
For data set [23], the system named is Folsomia candida. Conditions: chronic/long-term; duration: 28 days; reproduction.
Setting [24] is: short-term, oral, feed, mortality.

For `Cc1cc(OC2OC(CO)C(O)C(O)C2O)ccc1C(=O)C(C)(C)NC(=O)c1sccc1C` (stereo unspecified), the no observed adverse effect level (NOAEL) worked out at 1.57 mg/kg-day in [1] (chronic, duration: 1 years, Dog Other, body weight) and 5.34 mg/kg-day in data set [1] (subchronic, duration: 90 days, oral, Dog Other, body weight).
For the compound `Clc1ccc(C(c2ccccc2Cl)C(Cl)Cl)cc1` (stereo unspecified) [1-(2-Chlorophenyl)-1-(4-chlorophenyl)-2,2-dichloroethane], the LEL in data set [2] (subchronic, oral, diet, F, no effects) amounted to 0.3 mg/kg-day.
Take `c1nc[nH]n1` [1H-1,2,4-Triazole]: the NOAEL was 6.9 mg/kg-day in [3] (chronic, duration: 12 months, body weight); 17 mg/kg-day (2×) and 30 mg/kg-day (2×) in [3] (reproduction developmental); 30 mg/kg-day in [6] (body weight). The LC50 in data set [4] (setting [24]) is over 1350 mg/kg-day; in data set [5] (acute, oral, diet, mortality) it was over 1410 mg/kg-day.
`C/C=C(\C)C(=O)O` [2-Butenoic acid, 2-methyl-, (2E)-] gave an LC50 in data set [7] of 2010 mg/kg.
`CC1=C(/C=C/C(C)=C/C=C/C(C)=C/C=C/C=C(C)/C=C/C=C(C)/C=C/C2=C(C)C(=O)[C@@H](O)CC2(C)C)C(C)(C)C[C@H](O)C1=O` [3,3'-Dihydroxy-beta-carotene-4,4'-dione] showed an NOAEL in [8] (chronic, duration: 80 weeks, oral, body weight) of 14 mg/kg-day.
On to `C=C(C)C1CC=C(CO)CC1` (stereo unspecified) [4-Isopropenylcyclohex-1-en-1-ylmethanol], for which the LEL in data set [3] (subchronic, duration: 90 days, oral, gavage, F, no effects) worked out at 120 mg/kg-day; in [1] (subchronic, duration: 90 days, Dog Other, no effects), 120 mg/kg-day.
`CC=Cc1ccc(OC)c(OC)c1` [4-Prop-1-enylveratrole]: the NOAEL in [3] (short-term, duration: 28 days, oral, organ weight) came to 100 mg/kg-day and the NOAEL (repeat dose other) stood at 6 mg/kg-day.
As for `CC/C=C\CCOC(C)OCC` (stereo not drawn) [Acetaldehyde ethyl cis-3-hexenyl acetal], the LC50 amounted to 12 µg/mL (≈ 69.7 µM) in data set [9] (acute, mortality) and 238 mg/kg in data set [7].
In the case of `CC(C)(c1ccc(O)cc1)c1ccc(O)cc1` [Bisphenol A], in data set [8] (reproduction developmental, M/F, CD1, organ weight), the NOAEL came out at 5 mg/kg-day.
Consider `O=c1c(CO)c/c(=N/Nc2ccc(S(=O)(=O)[O-])c3ccccc23)c(=O)/c1=N/Nc1ccc(S(=O)(=O)[O-])c2ccccc12.[Na+].[Na+]` [Chocolate Brown HT], for which the no-observed-adverse-effect level (NOAEL) in data set [8] (chronic, duration: 80 weeks, oral, diet, M/F, histopathology: nonneoplastic) worked out at 143 mg/kg-day.
Regarding `CSCCC(O)C(=O)[O-].CSCCC(O)C(=O)[O-].[Cu+2]` (stereo unspecified) [Copper, bis[2-(hydroxy-?O)-4-(methylthio)butanoato-?O]-], the LEL in data set [10] was determined as 45 mg/kg-day; in [11] (subchronic, duration: 42 days, oral, diet, body weight), 340 mg/kg-day; in [12] (subchronic, duration: 8 weeks, oral, diet, clinical chemistry) it was 75 mg/kg-day; in data set [12] (subchronic, duration: 35 days, oral, diet, M, other), 500 mg/kg-day.
Take `C/C=C/C(=O)Oc1ccccc1[N+](=O)[O-].CCCCCCCC.O=NO` [Dinocap]: the NOAEL stood at 0.4 mg/kg-day in [1] (chronic, duration: 2 years, oral, Dog Other, ophthalmoscopic examination) and 3 mg/kg-day in data set [6] (oral). Moreover, the LD50 is 367 mg/kg-day in [4] (setting [24]) and over 2150 mg/kg-day in data set [5] (acute, oral, mortality). The NOEL in data set [5] (reproduction developmental, reproduction) was 27.5 mg/kg-day.
`CC(=O)Sc1cc(C)oc1C` [Ethanethioic acid, S-(2,5-dimethyl-3-furanyl) ester] had an NOAEL in data set [3] (subchronic, duration: 90 days) of 0.73 mg/kg-day and an NOAEL (subchronic, duration: 90 days) of 0.73 mg/kg-day.
Turning to `OO` [Hydrogen peroxide], the NOAEL in [8] (subchronic, duration: 90 days, oral, drinking water, M/F, food consumption) came to 100 mg/kg-day.
On to `C=CCOC(Cn1ccnc1)c1ccc(Cl)cc1Cl` (stereo unspecified) [Imazalil], for which the NOAEL in data set [6] (food consumption) is 10 mg/kg-day; in [6] (histopathology: nonneoplastic), 5 mg/kg-day.
As to `CSCCC(O)C(=O)[O-].CSCCC(O)C(=O)[O-].[Mn+2]` (stereo unspecified) [Manganese, bis[2-(hydroxy-?O)-4-(methylthio)butanoato-?O]-], the LEL in data set [10] turned out to be 450 mg/kg-day; in data set [11] (subchronic, duration: 42 days, oral, diet, clinical chemistry) it was 150 mg/kg-day; in [12] (subchronic, duration: 8 weeks, oral, diet, no effects), 450 mg/kg-day.
As to `COC(=O)c1ccccc1O` [Methyl salicylate], the no-observed-adverse-effect level (NOAEL) in data set [3] (chronic, duration: 2 years, oral, growth) turned out to be 50 mg/kg-day; in data set [1] (chronic, duration: 2 years, Dog Other), 50 mg/kg-day.
On to `C[C@@H]1C/C=C/C=C/C=C/C=C/[C@H](O[C@@H]2O[C@H](C)[C@@H](O)[C@H](N)[C@@H]2O)C[C@@H]2O[C@](O)(C[C@@H](O)C[C@H]3O[C@@H]3/C=C/C(=O)O1)C[C@H](O)[C@H]2C(=O)O` [Natamycin], for which the NOAEL in data set [3] (chronic, duration: 2 years, oral, diet, growth) turned out to be 22.4 mg/kg-day; in [1] (chronic, duration: 2 years, oral, diet, M/F, Beagle, body weight) it was 6.25 mg/kg-day.
`CNC(=O)CSP(=O)(OC)OC` [Omethoate] displayed an LC50 in data set [3] (acute, duration: 4 hours, inhalation, mortality) of 0.287 µg/mL (≈ 1.35 µM). For the same compound, the no-observed-adverse-effect level (NOAEL) was found to be 0.2 mg/kg-day in data set [3] (acute, oral, clinical signs); 0.03 mg/kg-day in data set [3] (reproduction developmental, clinical chemistry); 0.025 mg/kg-day in data set [1] (chronic, duration: 12 months, oral, gavage, Dog Other, clinical chemistry). The same compound gave an LOAEL in data set [3] (chronic, duration: 2 years, clinical chemistry) of 0.04 mg/kg-day. The LD50 in data set [5] (acute, oral, mortality) was 9.9 mg/kg; in data set [13], 29 mg/kg.
For the compound `CCOc1cc(Oc2ccc(C(F)(F)F)cc2Cl)ccc1[N+](=O)[O-]` [Oxyfluorfen], the NOEC in data set [14] (acute, duration: 14 days, frond number) amounted to 0.00195 mg/L; in data set [9], 13 µg/L; in data set [16] (duration: 28 days, development), 80 µg/L; in [17] (duration: 34 days, reproduction) it was 38 µg/L. The compound further registered an LC50 in data set [15] of 0.21 µg/mL (≈ 0.581 µM).
In the case of `C=C(C)[C@@H]1NC(=O)[C@@H](NC)[C@@H](O)c2cc(Cl)c(O)c(c2)O[C@](C)(CC)[C@@H](C(=O)N2CC=C[C@H]2C(=O)N/C(C(=O)N/C(=C/C(=O)O)C(=O)O)=C(\C)CC)NC1=O` [Phomopsin], the LD50 in data set [2] (injection, subcutaneous) was at least 0.017 mg/kg; in [2] (oral), 1.34 mg/kg; in data set [11] (acute, mortality) it was 0.848 mg/kg. This compound also yielded an LOAEL in [2] (subchronic, clinical chemistry) of 12.5 mg/kg-day.
Turning to `P` [Phosphine], the NOAEL stood at 1.1 mg/kg-day in [3] (chronic, duration: 2 years, inhalation); 1.9 mg/kg-day in data set [3] (reproduction developmental, inhalation, mortality); 1.1 mg/kg-day in data set [3] (subchronic, duration: 90 days, inhalation, mortality). This compound displayed an LC50 in [18] of 0.048 µg/mL (≈ 1.41 µM).
As for `Cc1nc(N(C)C)nc(OC(=O)N(C)C)c1C` [Pirimicarb], the LD50 came out at 20 mg/kg in data set [5] (acute, duration: 2 hours, oral, gavage, M/F, mortality) and 370 mg/kg in [5] (acute, oral, diet, mortality).
With `[I-].[K+]` [Potassium iodide], the LEL in data set [11] (repeat dose other, no effects) came to 8 mg/kg-day; in data set [12] (repeat dose other, no effects), 5 mg/kg-day.
In the case of `CC(C)(C)c1ccc(CSc2cnn(C(C)(C)C)c(=O)c2Cl)cc1` [Pyridaben], the NOEC in [3] (chronic, M, body weight) was found to be 3.2 mg/kg-day; in [4] (chronic/long-term), 10 mg/kg-day; in [4] (setting [24]), 659 mg/kg-day. This compound also registered an LD50 in [5] (acute, oral, mortality) of over 2250 mg/kg-day.
Regarding `Fc1ccc(Oc2ccnc3cc(Cl)cc(Cl)c23)cc1` [Quinoxyfen], the NOEC in data set [14] (chronic/long-term, duration: 14 days) is 0.149 mg/L; in data set [19], 0.00409 mg/L; in data set [20] it was 0.00152 mg/L; in [16] (duration: 27 days), 128 µg/L.
For `Oc1cccc(O)c1` [Resorcinol], the NOAEL in data set [3] (chronic, duration: 103 weeks, oral, gavage, Fischer 344, neurology) is 36 mg/kg-day; in data set [8] (chronic, duration: 104 weeks, clinical signs), 36 mg/kg-day.
With `[Al+3].[Na+].[O-][Si]([O-])([O-])[O-]` [Sodium aluminium silicate], the NOEC in data set [9] worked out at 10000 µg/L; in data set [17] (duration: 30 days, growth), 86700 µg/L. Besides, in data set [18], the LC50 was over 100 µg/mL.
Compound `O=C1[N-]S(=O)(=O)c2ccccc21.[Na+]` [Sodium saccharin] yielded an NOEC in data set [7] (reproductive, duration: 56 days) of 100 mg/kg.
As to `CN1COCN(Cc2cnc(Cl)s2)/C1=N/[N+](=O)[O-]` [Thiamethoxam], the LD50 is 0.024 µg/piece (2×) and 0.0121 µg/piece in [21] (dermal); 0.00631 µg/piece in data set [21] (duration: 48 hours, oral, unspecified); 5.55 g/ha in data set [21] (duration: 72 hours, dermal); 0.005 µg/piece (3×) and 0.00936 µg/piece in data set [21] (oral, unspecified).
In data set [11] (reproduction developmental, F, morphology), `C[C@H]1CCCC(=O)CCC/C=C/c2cc(O)cc(O)c2C(=O)O1` [Zearalenone] displayed an NOEL of 0.01 mg/kg-day.
As for `OC[C@H]1O[C@@H]2O[C@H]3[C@H](O)[C@@H](O)[C@@H](O[C@H]4[C@H](O)[C@@H](O)[C@@H](O[C@H]5[C@H](O)[C@@H](O)[C@@H](O[C@H]6[C@H](O)[C@@H](O)[C@@H](O[C@H]7[C@H](O)[C@@H](O)[C@@H](O[C@H]1[C@H](O)[C@H]2O)O[C@@H]7CO)O[C@@H]6CO)O[C@@H]5CO)O[C@@H]4CO)O[C@@H]3CO` [alpha-Cyclodextrin], the NOAEL in data set [1] (subchronic, duration: 90 days, oral, diet, M/F, Beagle, no effects) worked out at 10000 mg/kg-day.
Turning to `C=C(C)[C@H]1CC=C(C)C(=O)C1` [d-Carvone], the NOEC in data set [14] (acute, duration: 192 hours, frond number) was 4.6 mg/L; in data set [22] it was at least 200 mg/kg; in data set [23] it was 25 mg/kg. The compound also gave an LD50 in data set [3] (acute, oral, mortality) of over 2000 mg/kg-day. In data set [3] (reproduction developmental, organ weight), the NOAEL amounted to 30 mg/kg-day. In [18], this compound had an LC50 of 56 µg/mL (≈ 373 µM).
In [4] (not reported, other), `Clc1ccc(C(c2ccc(Cl)cc2)C(Cl)Cl)cc1` [p,p'-DDD] returned an NOAEL of 0.06 mg/kg-day.
On to `ClC(Cl)=C(c1ccc(Cl)cc1)c1ccc(Cl)cc1` [p,p'-DDE], for which the LOAEL in [4] (reproductive, development) was found to be 0.6 mg/kg-day.

The term NOAEL denotes the highest tested level that showed no adverse finding. In general, LOAEL refers to the lowest tested level that showed an adverse finding.
